According to patent US10954305B2 (Immunomedics, Inc., priority 2016, dated 2021):

Tests used:
[1] = test system: SK-MES-1 human squamous cell lung tumors; assay: SK-MES-1 xenograft therapy; assay type: in vivo, nude mice; settings: irinotecan at MTD
[2] = test system: MDA-MB-468 TNBC tumors; assay: MDA-MB-468 TNBC xenograft therapy; assay type: in vivo, nude mice; settings: one animal each, tumors progressed after irinotecan
[3] = monotherapy weekly or once every 3 weeks; cited from earlier work
[4] = in vivo; settings: nude, mouse, 773 ug
[5] = test system: COLO 205 tumors; assay: COLO 205 xenograft therapy; settings: 24 mg SN-38/kg, q2dx5
[6] = test system: NCI-N87-S-120 tumors; assay: SN-38-resistant xenograft therapy; settings: IMMU-132 0.5 mg twice weekly ×4 weeks; irinotecan 40 mg/kg q2dx5
[7] = test system: NCI-N87-S120; assay: in vitro cytotoxicity, MTS (Table 14); assay type: cell-based, human; settings: for effect on SN-38 toxicity in S-120 cells: both S-120 cells, in vitro; for reversal of SN-38 resistance vs Ko143 and YHO-13351: limited studies
Protocol: (§1) Each cell line was maintained according to the recommendations of ATCC and routinely tested for mycoplasma using MYCOALERT™ mycoplasma detection kits (Lonza). The two SN-38-resistant cell lines, MDA-MB-231-5120 and NCI-N87-S120, were established by continuous exposure of the parental cells to stepwise increased concentrations of SN-38 from 6 pM to 120 nM over a period of approximately 2 years. In addition, a revertant cell line (NCI-N87-S120-REV) was obtained after culturing NCI-N87-S120 in SN-38-free medium for 4 months. The S-120 clones were maintained in medium containing 120 nM of SN-38, but cultured in drug-free medium for 7 to 14 days prior to any experiment. All cells were grown at 37° C. as monolayer cultures in a humidified atmosphere of 5% CO2.
(§2) In Vitro cytotoxicity. […] Briefly, cells were placed into wells of 96-well plates. […] From these working solutions, serial 5-fold dilutions were made in sterile media to yield final concentrations between 500 and 0.0064 nM in test wells. […] Cytotoxicity was measured as a percent of growth relative to untreated cells. Dose-response curves were generated from the mean of triplicate determinations, and IC50 values were calculated using GraphPad Prism Software V 6.05 (Advanced Graphics Software).
(§3) The effect of ABCG2 inhibitors on the IC50 values of SN-38 for the parental and resistant cell lines was determined from the respective dose-response curves obtained for SN-38 in the presence of a non-toxic concentration of ABCG2 inhibitors.

[8] = test system: Capan-1 tumors; assay: CL2 vs CL2A linker, Capan-1 xenograft; assay type: in vivo, mice; settings: 0.2 mg/kg SN-38 twice weekly × 4 weeks
Protocol: FIG. 4C. […] Capan-1 mice (N=10) were treated with 0.2 mg/kg ADC and tumors measured weekly.

[9] = test system: Calu-3 tumors; assay: Calu-3 xenograft therapy; assay type: in vivo, nude mice; settings: 0.4 mg/kg SN-38
[10] = molecular target: T1, Trop-2 on multiple cell lines (Homo sapiens, UniProt P09758); assay: in vitro cell binding
T1 construct: endogenous in cells; host or cells: human solid tumour cell lines
T1 sequence (P09758 27-323): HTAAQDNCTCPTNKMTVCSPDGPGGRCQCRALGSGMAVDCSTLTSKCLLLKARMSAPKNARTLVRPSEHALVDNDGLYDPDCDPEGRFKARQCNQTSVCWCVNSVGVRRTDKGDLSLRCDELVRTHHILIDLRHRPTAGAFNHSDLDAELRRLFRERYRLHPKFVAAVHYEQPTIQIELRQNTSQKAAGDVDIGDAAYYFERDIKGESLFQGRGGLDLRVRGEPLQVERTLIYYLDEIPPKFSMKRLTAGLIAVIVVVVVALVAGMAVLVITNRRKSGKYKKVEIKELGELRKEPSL
Protocol: LumiGLO Chemiluminescent Substrate System (KPL, Gaithersberg, Md.) was used to detect antibody binding to cells. Briefly, cells were plated into a 96 black-well, flat-clear-bottom plate overnight. Antibodies were serially diluted 1:2 and added in triplicate, yielding a concentration range from 0.03 to 66.7 nM. After incubating for 1 h at 4° C., the media was removed and the cells washed with fresh cold media followed by the addition of a 1:20,000 dilution of goat-antihuman horseradish peroxidase-conjugated secondary antibody (Jackson Immunoresearch, West Grove, Pa.) for 1 h at 4° C. The plates were again washed before the addition of the LumiGLO reagent. Plates were read for luminescence using an Envision plate reader (Perkin Elmer, Boston Mass.). Data were analyzed by non-linear regression to determine the equilibrium dissociation constant (KD). Statistical comparisons of KD-values were made with Prism GraphPad Software (v4.03) (Advanced Graphics Software, Inc.; Encinitas, Calif.) using an F-Test on the best-fit curves for the data. Significance was set at P<0.05.

[11] = molecular target: ABCG2 (Homo sapiens, UniProt Q9UNQ0); settings: S-120 cells, FTC 10 μM
[12] = FIG. 12
[13] = test system: BxPC-3; assay: dsDNA breaks, γH2AX flow cytometry; assay type: cell-based, human; settings: 20 μg/ml for 30 min
Protocol: For drug activity testing, BxPC-3 cells were seeded in 6-well plates at 5×10^5 cells/well and held at 37° C. overnight. […] The following morning, cells were trypsinized briefly, spun down, stained with Fixable Viability Stain 450 (BD Biosciences, San Jose, Calif.), washed with 1% BSA-PBS, and then fixed in 4% formalin for 15 min, washed again and permeabilized in 0.15% Triton-X100 in PBS for another 15 min. After washing twice with 1% BSA-PBS, cells were incubated with mouse anti-γH2AX-AF488 (EMD Millipore Corporation, Temecula, Calif.) for 45 min at 4° C. The signal intensity of γH2AX was measured by flow cytometry using a BD FACSCanto (BD Biosciences, San Jose, Calif.).

[14] = test system: NCI-N87; assay: in vitro cytotoxicity, MTS (Table 14); assay type: cell-based; settings: Homo sapiens, YHO-13351 2 μM, Ko143 1 μM where added
Protocol: as §1
In Vitro cytotoxicity. […] Briefly, cells were placed into wells of 96-well plates. […] Cytotoxicity was measured as a percent of growth relative to untreated cells. Dose-response curves were generated from the mean of triplicate determinations, and IC50 values were calculated using GraphPad Prism Software V 6.05 (Advanced Graphics Software).
as §3

[15] = test system: MDA-MB-231-S120; assay: in vitro cytotoxicity, MTS (Table 14); assay type: cell-based, human
Protocol: as §1, §2, §3

[16] = test system: MDA-MB-231; assay: in vitro cytotoxicity, MTS (Table 14); assay type: cell-based, human; settings: Homo sapiens, YHO-13351 2 μM where added
Protocol: as §1, §2, §3

[17] = test system: Capan-1 xenografts; assay: combined radioimmunotherapy and ADC, Capan-1 xenograft; assay type: in vivo, nude mice
Description: The present study examined combinations of ^90Y-hPAM4 IgG with RS7-SN-38 in nude mice bearing 0.35 cm^3 subcutaneous xenografts of the human pancreatic cancer cell line, Capan-1. […] These studies provide the first evidence that combined radioimmunotherapy and ADC enhances efficacy at safe doses.

ABCG2, sequence (Q9UNQ0 whole entry): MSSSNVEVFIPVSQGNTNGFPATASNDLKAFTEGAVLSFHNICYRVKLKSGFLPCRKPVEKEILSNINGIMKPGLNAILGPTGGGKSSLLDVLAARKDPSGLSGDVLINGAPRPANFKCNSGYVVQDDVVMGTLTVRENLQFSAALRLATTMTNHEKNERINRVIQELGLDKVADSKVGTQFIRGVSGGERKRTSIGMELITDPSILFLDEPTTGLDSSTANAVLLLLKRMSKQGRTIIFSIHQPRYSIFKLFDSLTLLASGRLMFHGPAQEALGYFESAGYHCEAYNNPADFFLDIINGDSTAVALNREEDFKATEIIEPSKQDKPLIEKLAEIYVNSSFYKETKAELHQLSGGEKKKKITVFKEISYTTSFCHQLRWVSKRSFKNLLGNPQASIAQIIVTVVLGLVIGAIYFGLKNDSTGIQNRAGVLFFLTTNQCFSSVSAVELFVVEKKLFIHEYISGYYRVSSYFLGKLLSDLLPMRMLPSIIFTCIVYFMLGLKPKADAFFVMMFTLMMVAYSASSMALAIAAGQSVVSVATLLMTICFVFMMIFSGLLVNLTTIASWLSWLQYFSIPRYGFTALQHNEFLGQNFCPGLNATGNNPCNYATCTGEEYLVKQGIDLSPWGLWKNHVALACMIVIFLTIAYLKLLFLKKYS

CCc1c2c(nc3ccc(OC(=O)N4CCC(N5CCCCC5)CC4)cc13)-c1cc3c(c(=O)n1C2)COC(=O)[C@]3(O)CC [irinotecan, reference compound]
antitumor effect vs specific conjugate [1]: the same antitumor effects as the specific hRS7-SN-38 conjugate | decrease in tumor size on re-treatment [2]: 23% | grade 3 and 4 neutropenia incidence [3]: 14 to 26% | AUC [4]: 21000 ng·h/mL | efficacy at MTD [5]: as effective as hRS7-CL2-SN-38 | survival benefit [6]: no significant survival benefit

COc1cc2c(cc1OC)CN(CCc1ccc(NC(=O)c3cccc4c(=O)c5cccc(OC)c5[nH]c34)cc1)CC2 [GF120918]
effect on SN-38 toxicity in S-120 cells [7]: restored toxicity of SN-38 | reversal of SN-38 resistance vs Ko143 and YHO-13351 [7]: comparable or less potency

hRS7-CL2-SN-38
mice tumor-free at end of study (day 140) [8]: 40% | response at higher dose [9]: remained tumor-free until the end of the study on day 147

hRS7-NEM: hRS7 treated with TCEP and conjugated with N-ethylmaleimide [reference compound]
KD [10]: in the sub-nanomolar range

COc1ccc2c3c([nH]c2c1)[C@H](C=C(C)C)N1C(=O)[C@@H]2CCCN2C(=O)[C@@H]1C3 [FTC]
effect on SN-38 toxicity in S-120 cells [7]: restored toxicity of SN-38 | reversal of SN-38 resistance vs Ko143 and YHO-13351 [7]: comparable or less potency | reduction of intracellular PhA on omission of FTC [11]: greater than 95%

CCc1c2c(nc3ccc(O[C@@H]4O[C@H](C(=O)O)[C@@H](O)[C@H](O)[C@H]4O)cc13)-c1cc3c(c(=O)n1C2)COC(=O)[C@]3(O)CC [SN-38G (5 min - 6 h)]
AUC [12]: 11.6 (µg/mL·h)

cyclosporine A
reversal of SN-38 resistance vs Ko143 and YHO-13351 [7]: comparable or less potency

hA20-CL2A-SN-38 [reference compound]
mice tumor-free at end of study (day 140) [8]: 20% | antitumor effect vs specific conjugate [1]: the same antitumor effects as the specific hRS7-SN-38 conjugate | Mean Fluorescence Intensity (γH2AX) [13]: 2246 ± 58 | Percent Positive (γH2AX) ([13]; listed as hA20-SN-38): 12.7 ± 2.4%

CC(=O)O[C@H]1C(=O)[C@@]2(C)[C@H]([C@H](OC(=O)c3ccccc3)[C@]3(O)C[C@H](OC(=O)[C@H](O)[C@@H](NC(=O)c4ccccc4)c4ccccc4)C(C)=C1C3(C)C)[C@]1(OC(C)=O)CO[C@@H]1C[C@@H]2O [Paclitaxel]
IC50 [14]: 7.9 ± 4 nM | IC50 ([15]; Homo sapiens, MDA-MB-231-S120, YHO-13351 2 μM where added): 3.2 ± 0.7 nM | RF (resistance factor) ([15]; IC50 mean of MDA-MB-231-S120 / MDA-MB-231): 1.3 | IC50 [16]: 2.5 ± 0.1 nM | IC50 ([7]; Homo sapiens, NCI-N87-S120, YHO-13351 2 μM, Ko143 1 μM where added): 8.6 ± 6.5 nM | RF (resistance factor) ([7]; IC50 mean of NCI-N87-S120 / NCI-N87): 1.1

CCc1c2c(nc3ccc(O)cc13)-c1cc3c(c(=O)n1C2)COC(=O)[C@]3(O)CC [SN-38 (5 min - 2 h)]
AUC [12]: 3.9 (µg/mL·h)

CCN(CC)CC(=O)OC1CCN(c2ccc(/C=C(\C#N)c3ccc(OC)c(OC)c3)s2)CC1.CS(=O)(=O)O [YHO-13351]
effect on SN-38 toxicity in S-120 cells [7]: restored toxicity of SN-38

B1: ^90Y-hPAM4 (conjugate, chains of the INN, looked up)
VH: QVQLQQSGAEVKKPGASVKVSCEASGYTFPSYVLHWVKQAPGQGLEWIGYINPYNDGTQYNEKFKGKATLTRDTSINTAYMELSRLRSDDTAVYYCARGFGGSYGFAYWGQGTLVTVSS
VL: DIQLTQSPSSLSASVGDRVTMTCSASSSVSSSYLYWYQQKPGKAPKLWIYSTSNLASGVPARFSGSGSGTDFTLTISSLQPEDSASYFCHQWNRYPYTFGGGTRLEIK
modifications: 90Y radiolabel
mice tumor-free after 20 weeks ([17]; 75 μCi alone): 1 of 10 | animals tumor-free ([17]; 130 μCi RAIT alone): 5 of 10

B2: hPAM4: unconjugated humanized PAM4 anti-MUC5ac antibody (antibody, chains of the INN, looked up, V domains shown)
VH: QVQLQQSGAEVKKPGASVKVSCEASGYTFPSYVLHWVKQAPGQGLEWIGYINPYNDGTQYNEKFKGKATLTRDTSINTAYMELSRLRSDDTAVYYCARGFGGSYGFAYWGQGTLVTVSS
VL: DIQLTQSPSSLSASVGDRVTMTCSASSSVSSSYLYWYQQKPGKAPKLWIYSTSNLASGVPARFSGSGSGTDFTLTISSLQPEDSASYFCHQWNRYPYTFGGGTRLEIK
anti-tumor activity of unconjugated antibody ([17]; given alone): Neither unconjugated hPAM4 nor hRS7 antibodies had anti-tumor activity when given alone
